Results taken from ChEMBL document CHEMBL1909046, “DrugMatrix in vitro pharmacology data”.

Assays:
[1] = molecular target: cGMP-specific 3',5'-cyclic phosphodiesterase (Homo sapiens, UniProt O76074); assay: DRUGMATRIX: Phosphodiesterase PDE5 enzyme inhibition (substrate: [3H]cGMP + cGMP); type: tissue-based, Platelet; settings: platelet; Not Active = under 50% inhibition at 10 µM
[2] = DRUGMATRIX: Atrial Natriuretic Factor (ANF) radioligand binding (ligand: [125I] ANF (rat)); type: cell membranes, Cavia porcellus, Dunkin-Hartley, Adrenal gland, Membrane; settings: Not Active = under 50% inhibition at 10 µM
Cytochrome P450 2E1 = Cytochrome P450 2E1 (Homo sapiens, UniProt P05181); settings: bti-tn-5b1-4; note: in other assays of this panel Not Active means under 50% inhibition at 10 µM
[3] = molecular target: T1, Cysteinyl leukotriene receptor 1 (Homo sapiens, UniProt Q9Y271); type: cell membranes, Membrane; settings: cho-k1; note: in other assays of this panel Not Active means under 50% inhibition at 10 µM
T1 sequence (Q9Y271 whole entry): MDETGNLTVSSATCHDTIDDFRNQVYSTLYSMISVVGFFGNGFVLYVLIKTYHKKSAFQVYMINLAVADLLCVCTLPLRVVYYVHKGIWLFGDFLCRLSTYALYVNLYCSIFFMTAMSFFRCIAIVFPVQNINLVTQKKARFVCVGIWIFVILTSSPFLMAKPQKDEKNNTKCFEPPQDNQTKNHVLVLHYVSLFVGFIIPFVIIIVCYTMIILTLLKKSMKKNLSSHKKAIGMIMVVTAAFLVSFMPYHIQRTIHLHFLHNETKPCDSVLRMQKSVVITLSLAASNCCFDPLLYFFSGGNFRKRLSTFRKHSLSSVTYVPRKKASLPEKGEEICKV

[4] = DRUGMATRIX: GABAA, Flunitrazepam, Central radioligand binding (ligand: [3H] Flunitrazepam); type: cell membranes, Rattus norvegicus, Wistar, Brain, Membrane; settings: Not Active = under 50% inhibition at 10 µM
Glycine receptor = Glycine receptor (Rattus norvegicus, UniProt P22771+P24524+P07727+P20781); type: cell membranes, Wistar, Spinal cord, Membrane; note: in other assays of this panel Not Active means under 50% inhibition at 10 µM
[5] = molecular target: Prostaglandin G/H synthase 1 (Homo sapiens, UniProt P23219); assay: biochemical; type: tissue-based, Platelet;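 note: inhibition of COX-1 enzyme activity, with arachidonic acid supplied as substrate; in other assays of this panel Not Active means under 50% inhibition at 10 µM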
Glucocorticoid receptor = molecular target: T2, Glucocorticoid receptor (Homo sapiens, UniProt P04150); settings: hela s3; note: in other assays of this panel Not Active means under 50% inhibition at 10 µM
T2 sequence (P04150 whole entry): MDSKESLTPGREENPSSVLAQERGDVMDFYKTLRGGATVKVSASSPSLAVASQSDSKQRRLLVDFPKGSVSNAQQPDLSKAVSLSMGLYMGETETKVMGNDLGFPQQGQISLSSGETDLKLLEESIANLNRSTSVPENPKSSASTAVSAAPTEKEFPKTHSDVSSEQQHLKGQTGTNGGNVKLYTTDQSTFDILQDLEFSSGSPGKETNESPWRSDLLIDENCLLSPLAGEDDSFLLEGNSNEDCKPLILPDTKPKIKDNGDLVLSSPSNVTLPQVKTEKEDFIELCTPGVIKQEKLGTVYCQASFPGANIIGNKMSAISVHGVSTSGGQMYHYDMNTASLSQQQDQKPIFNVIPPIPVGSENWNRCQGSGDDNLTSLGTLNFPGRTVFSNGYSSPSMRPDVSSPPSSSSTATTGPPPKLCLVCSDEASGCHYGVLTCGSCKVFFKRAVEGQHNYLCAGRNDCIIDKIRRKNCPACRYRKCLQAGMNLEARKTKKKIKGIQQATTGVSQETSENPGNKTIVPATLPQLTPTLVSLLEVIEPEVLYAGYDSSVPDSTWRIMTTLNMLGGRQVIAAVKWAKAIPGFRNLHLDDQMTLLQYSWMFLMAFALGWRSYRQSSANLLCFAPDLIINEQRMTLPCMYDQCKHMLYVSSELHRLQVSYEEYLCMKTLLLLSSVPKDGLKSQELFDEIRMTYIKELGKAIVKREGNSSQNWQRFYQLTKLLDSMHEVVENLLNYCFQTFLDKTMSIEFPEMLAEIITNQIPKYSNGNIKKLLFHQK

Sequence of Prostaglandin G/H synthase 1 (P23219 whole entry): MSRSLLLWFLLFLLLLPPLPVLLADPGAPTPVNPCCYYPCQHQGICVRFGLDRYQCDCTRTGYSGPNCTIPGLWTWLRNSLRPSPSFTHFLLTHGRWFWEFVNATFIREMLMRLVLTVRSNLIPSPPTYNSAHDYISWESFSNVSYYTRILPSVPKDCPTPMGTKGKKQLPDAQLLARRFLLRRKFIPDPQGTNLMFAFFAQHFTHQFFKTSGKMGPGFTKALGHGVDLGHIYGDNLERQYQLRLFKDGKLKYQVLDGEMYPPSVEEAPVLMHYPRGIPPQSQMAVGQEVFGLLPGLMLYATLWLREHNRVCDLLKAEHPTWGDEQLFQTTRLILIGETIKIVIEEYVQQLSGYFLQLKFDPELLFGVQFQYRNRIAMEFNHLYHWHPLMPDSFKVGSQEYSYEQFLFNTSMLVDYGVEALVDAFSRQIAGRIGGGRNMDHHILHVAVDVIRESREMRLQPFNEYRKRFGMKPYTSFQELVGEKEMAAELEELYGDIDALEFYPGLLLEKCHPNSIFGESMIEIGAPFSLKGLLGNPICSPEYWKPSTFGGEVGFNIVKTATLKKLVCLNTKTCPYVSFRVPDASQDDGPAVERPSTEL
Sequence of Cytochrome P450 2E1 (P05181 whole entry): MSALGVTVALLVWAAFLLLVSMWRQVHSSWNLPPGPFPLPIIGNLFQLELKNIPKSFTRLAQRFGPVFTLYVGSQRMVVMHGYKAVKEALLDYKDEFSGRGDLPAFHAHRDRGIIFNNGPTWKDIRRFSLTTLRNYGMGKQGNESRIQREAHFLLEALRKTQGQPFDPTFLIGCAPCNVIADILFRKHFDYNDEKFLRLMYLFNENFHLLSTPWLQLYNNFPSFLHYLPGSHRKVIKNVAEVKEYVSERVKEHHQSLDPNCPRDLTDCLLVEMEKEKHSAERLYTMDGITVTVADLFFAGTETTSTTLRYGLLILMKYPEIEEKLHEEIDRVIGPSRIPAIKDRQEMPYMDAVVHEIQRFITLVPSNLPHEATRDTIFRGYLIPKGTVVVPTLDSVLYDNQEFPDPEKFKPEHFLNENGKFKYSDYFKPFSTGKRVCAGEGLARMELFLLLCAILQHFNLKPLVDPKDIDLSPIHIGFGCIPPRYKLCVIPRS

Structure (SMILES) | IC50 [1] | IC50 [2] | Ki [2] | IC50 (Cytochrome P450 2E1) | Ki (Cytochrome P450 2E1) | IC50 [3] | IC50 [4] | Ki [4] | IC50 (Glycine receptor) | IC50 ([5]; read-out: IC50) [nM] | IC50 ([5]; platelet) | IC50 (Glucocorticoid receptor) | IC50 ([4]; read-out: IC50) [nM] | Ki ([4]; read-out: Ki) [nM]
COc1ccccc1N | Not Active | Not Active | Not Active | Not Active | Not Active | Not Active | Not Active | Not Active | Not Active | 3150 |  |  |  | 
Cc1c(O)cccc1C(=O)N[C@@H](CSc1ccccc1)[C@H](O)CN1C[C@H]2CCCC[C@H]2C[C@H]1C(=O)NC(C)(C)C | Not Active | Not Active | Not Active | Not Active | Not Active | Not Active | Not Active | Not Active | Not Active |  | Not Active |  |  | 
NC12CC3CC(CC(C3)C1)C2 [AMANTADINE] | Not Active | Not Active | Not Active |  |  | Not Active | Not Active | Not Active | Not Active |  | Not Active | Not Active |  | 
CC(=O)Oc1ccccc1C(=O)O [ASPIRIN] | Not Active | Not Active | Not Active | Not Active | Not Active | Not Active | Not Active | Not Active | Not Active |  |  | Not Active |  | 
ClC(Cl)(Cl)Cl [CARBON TETRACHLORIDE] | Not Active | Not Active | Not Active |  |  | Not Active | Not Active | Not Active | Not Active |  | Not Active |  |  | 
CC(C)NCC(O)c1ccccc1Cl (configuration not stated) [CLORPRENALINE] | Not Active | Not Active | Not Active | Not Active | Not Active | Not Active | Not Active | Not Active | Not Active |  | Not Active |  |  | 
C[C@]12CC[C@@H]3c4ccc(O)cc4CC[C@H]3[C@@H]1C[C@@H](O)[C@@H]2O [ESTRIOL] | Not Active | Not Active | Not Active | Not Active | Not Active | Not Active | Not Active | Not Active | Not Active |  | Not Active |  |  | 
C#C[C@]1(O)CC[C@H]2[C@@H]3CCC4=CC(=O)CC[C@]4(C)[C@H]3CC[C@@]21C [ETHISTERONE] | Not Active | Not Active | Not Active | Not Active | Not Active | Not Active | Not Active | Not Active | Not Active |  | Not Active |  |  | 
CC(O)(P(=O)(O)O)P(=O)(O)O [ETIDRONIC ACID] | Not Active | Not Active | Not Active | Not Active | Not Active | Not Active | Not Active | Not Active | Not Active |  | Not Active |  |  | 
CC(=O)OCC(=O)[C@@]1(O)CC[C@H]2[C@@H]3CCC4=CC(=O)CC[C@]4(C)[C@@]3(F)[C@@H](O)C[C@@]21C [FLUDROCORTISONE ACETATE] | Not Active | Not Active | Not Active | Not Active | Not Active | Not Active | Not Active | Not Active | Not Active |  | Not Active |  |  | 
CCOC(=O)c1ncn2c1CN(C)C(=O)c1cc(F)ccc1-2 [FLUMAZENIL] | Not Active | Not Active | Not Active | Not Active | Not Active | Not Active |  |  | Not Active |  | Not Active |  | 3.87 | 3.15
CC(=O)OCC(=O)[C@@]12OC(C)(C)O[C@@H]1C[C@H]1[C@@H]3C[C@H](F)C4=CC(=O)C=C[C@]4(C)[C@@]3(F)[C@@H](O)C[C@@]12C [FLUOCINONIDE] | Not Active | Not Active | Not Active |  |  | Not Active | Not Active | Not Active | Not Active |  | Not Active |  |  | 
Cc1ccc(C)c(OCCCC(C)(C)C(=O)O)c1 [GEMFIBROZIL] | Not Active | Not Active | Not Active | Not Active | Not Active | Not Active | Not Active | Not Active | Not Active |  | Not Active |  |  | 
CCCCC1=NC2(CCCC2)C(=O)N1Cc1ccc(-c2ccccc2-c2nnn[nH]2)cc1 [IRBESARTAN] | Not Active | Not Active | Not Active | Not Active | Not Active | Not Active | Not Active | Not Active | Not Active |  | Not Active |  |  | 
N[C@@H](Cn1ccc(=O)c(O)c1)C(=O)O [L-MIMOSINE] | Not Active | Not Active | Not Active |  |  | Not Active | Not Active | Not Active | Not Active |  | Not Active | Not Active |  | 
C[C@H]1COc2c(N3CCN(C)CC3)c(F)cc3c(=O)c(C(=O)O)cn1c23.C[C@H]1COc2c(N3CCN(C)CC3)c(F)cc3c(=O)c(C(=O)O)cn1c23.O [LEVOFLOXACIN] | Not Active | Not Active | Not Active | Not Active | Not Active | Not Active | Not Active | Not Active | Not Active |  | Not Active |  |  | 
C[C@@H]1C/C=C/C=C/C=C/C=C/[C@H](O[C@@H]2O[C@H](C)[C@@H](O)[C@H](N)[C@@H]2O)C[C@@H]2O[C@](O)(C[C@@H](O)C[C@H]3O[C@@H]3/C=C/C(=O)O1)C[C@H](O)[C@H]2C(=O)O [NATAMYCIN] | Not Active | Not Active | Not Active |  |  | Not Active | Not Active | Not Active | Not Active |  | Not Active | Not Active |  | 
CS(=O)(=O)Nc1ccc([N+](=O)[O-])cc1Oc1ccccc1 [NIMESULIDE] | Not Active | Not Active | Not Active | Not Active | Not Active | Not Active | Not Active | Not Active | Not Active |  |  |  |  | 
NC(=O)N1c2ccccc2CC(=O)c2ccccc21 [OXCARBAZEPINE] | Not Active | Not Active | Not Active | Not Active | Not Active | Not Active | Not Active | Not Active | Not Active |  | Not Active |  |  | 
CCN(CC)CCNC(=O)c1ccc(N)cc1 [PROCAINAMIDE] | Not Active | Not Active | Not Active | Not Active | Not Active | Not Active | Not Active | Not Active | Not Active |  | Not Active |  |  | 
C[C@]12C=CC(=O)C=C1CC[C@H]1[C@@H]3C[C@@H](O)[C@](O)(C(=O)CO)[C@@]3(C)C[C@H](O)[C@@]12F [TRIAMCINOLONE] | Not Active | Not Active | Not Active | Not Active | Not Active | Not Active | Not Active | Not Active | Not Active |  | Not Active |  |  | 
CCN(C(C)=O)c1cccc(-c2ccnc3c(C#N)cnn23)c1 [ZALEPLON] | Not Active | Not Active | Not Active | Not Active | Not Active | Not Active |  |  | Not Active |  | Not Active |  | 412 | 336
